Results taken from US20180148390A1, “METHOD AND COMPOSITION FOR RETAINING NUTRIENTS IN SOIL AT PLANTING SITES” (WaterScience, Inc., priority 2016, published 2018).
In brackets after ≈: the same amount, converted by molar mass.

What was measured:
[1] = physchem; conditions: for solubility: 25 °C, pH 7, water
Text: High solubility of naturally occurring positively charged amino acids are subject to runoff, which may be problematic. However, positively charged amino acids are better retained than negatively charged nitrate, sulfate, and phosphate which are poorly retained in the negatively charged soils.

[2] = Column retention of amino acid on WS A201; assay type: physicochemical; conditions: for amount complexed and retained by the WS A 201 / amount passed through the column: 100 ml solution on 89 ml WS A201 column at 1.5 ml/min, displaced with 100 ml deionized water; for converted to cationic charge: from WS A201 column retention
Description: The modified alanine solution was added to 100 ml burette with 9 mm diameter at the rate of 1.5 ml/min. The column was filled with 89 ml of WS A201 (WaterScience, Inc., Peoria, Ill.) which has an anion exchange capacity of 2 EG Kg. To the burette was added 100 ml deionized water to displace the modified alanine. […] The 100 ml of deionized water containing 890.9 mg of unmodified alanine was added to another column containing fresh WS A 201. To the burette was also added 100 ml of deionized water to displace the unmodified alanine solution from the column.
The column was filled with 89 ml of WS A 201 which has an anion exchange capacity of 2 EG Kg. […] The 100 ml of deionized water containing 1471 mg of unmodified glutamic acid was added to another column containing fresh WS A 201. To the burette column was also added 100 ml of deionized water to displace the unmodified glutamic acid solution from the column.
The 1% modified leucine acid solution was added to 100 ml burette with 9 mm diameter at the rate of 1.5 ml/min. The column was filled with 89 ml of WS A 201 which has an anion exchange capacity of 2 EG Kg. To the burette was added 100 ml deionized water to displace the modified leucine. […] The 100 ml of deionized water containing 1312 mg of unmodified leucine was added to another column containing fresh WS A 201. To the burette was also added 100 ml of deionized water to displace the unmodified leucine solution from the column.

[3] = Electro-potential of amino acid in deionized water against a hydrogen electrode; assay type: physicochemical; conditions: amino acid in 100 ml deionized water, electro-potential meter against hydrogen electrode
Description: After drying, 890.9 mg of the modified alanine (i.e., protonated alanine) was added to 100 ml of deionized water to form a modified alanine solution. The electro-potential of the modified alanine water mixture was measured with an electro-potential meter against a hydrogen electrode. […] 890.9 mg sample of unmodified alanine was added to 100 ml of deionized water.
890.9 mg sample of unmodified glutamic acid was added to 100 ml of deionized water.
After drying, 1902 mg of the modified leucine was added to 100 ml of deionized water to form a modified leucine solution. The electro-potential of the modified leucine water mixture was measured with an electro-potential meter against a Hydrogen electrode. […] 1312 mg sample of unmodified leucine was added to 100 ml of deionized water.

Row | Structure (SMILES) | solubility [1] [mg/mL] | reduction of solubility by modification with a weak base to pH 10 ([1]; pH 10) [%] | amount complexed and retained by the WS A 201 [2] [mg] | amount passed through the column [2] [mg] | electro-potential [3] [mV] | converted to cationic charge [2] [%]
1 | NCCCC[C@H](N)C(=O)O [lysine] | 1000 (≈ 6840 mM) | 89 | – | – | – | –
2 | C[C@H](N)C(=O)O [unmodified alanine, alanine, reference compound] | – | – | 37.3 | 853.6 | – | –
3 | CC(C)C[C@H](N)C(=O)O [unmodified leucine, leucine, reference compound] | – | – | 41 | 1271 | – | –
4 | CC(CNC(=N)N)C[C@H](N)C(=O)O (some centres unmarked) [modified leucine, Guanidine modified leucine] | – | – | 1246 | 66 | 197 | 95
5 | N[C@@H](Cc1c[nH]cn1)C(=O)O [histidine] | 41.9 (≈ 270 mM) | – | – | – | – | –
6 | C[C@H](N)C(=O)O [modified alanine, Protonated alanine] | – | – | 845.8 | 45.1 | 177 | 94.9
7 | N[C@@H](CCC(=O)O)C(=O)O [unmodified glutamic acid, glutamic acid, reference compound] | – | – | 79 | 1392 | – | –
